According to patent publication US4569937A, “Analgesic mixture of oxycodone and ibuprofen” (priority 1985, dated 1986):
Like-named read-outs stand apart in the source and are kept apart here.

Test system: phenyl-p-benzoquinone induced writhing in mice
Format: in vivo, mice (male CF1)
Details: oral, N=43 mice/dose; for % MICE BLOCKED: 5 min

Compound | % MICE BLOCKED (ibuprofen 2.25 mg/kg) [%] | % MICE BLOCKED (ibuprofen 4.49 mg/kg) [%] | % MICE BLOCKED (ibuprofen 8.98 mg/kg) [%] | % MICE BLOCKED (ibuprofen 17.96 mg/kg) [%] | ED50 AT 5 MIN, Ibuprofen (95% Confidence Limits) (ibuprofen part of the ED50 dose (alone or at fixed ratio oxycodone:ibuprofen)) [mg/kg] | % MICE BLOCKED (oxycodone HCl 0.36 mg/kg) [%] | % MICE BLOCKED (oxycodone HCl 0.72 mg/kg) [%] | % MICE BLOCKED (oxycodone HCl 1.44 mg/kg) [%] | % MICE BLOCKED (oxycodone HCl 2.88 mg/kg) [%] | % MICE BLOCKED (oxycodone HCl 5.76 mg/kg) [%] | ED50 AT 5 MIN, Oxycodone (95% Confidence Limits) (oxycodone HCl part of the ED50 dose (alone or at fixed ratio oxycodone:ibuprofen)) [mg/kg]
CC(C)Cc1ccc(C(C)C(=O)O)cc1 (stereo not drawn) [Ibuprofen, α-methyl-4-(2-methylpropyl)benzeneacetic acid] | 7.0 | 11.6 | 20.1 | 62.8 | 15.8 |  |  |  |  |  | 
COc1ccc2c3c1O[C@H]1C(=O)CC[C@@]4(O)[C@@H](C2)N(C)CC[C@]314 [Oxycodone] |  |  |  |  |  | 11.6 | 4.7 | 39.5 | 81.4 | 95.3 | 1.88
